Assay results from patent US8652999B1, “Herbicidal compositions comprising 4-amino-3-chloro-5-fluoro-6-(4-chloro-2-fluoro-3-methoxyphenyl)pyridine-2-carboxylic acid or a derivative thereof and a sulfonylaminocarbonyltriazolinone” (Dow AgroSciences, LLC., priority 2012, dated 2014).

Key:
Assay type in all cases: in vivo
Settings in all cases: foliar, 20-22 days
[1] = system: Veronica persica (VERPE); experiment: Postemergence herbicidal activity, greenhouse, VERPE
Method: (§1) Evaluation of Postemergence Herbicidal Activity of Mixtures in Cereal Crops
(§2) Seeds of the desired test plant species were planted in Sun Gro MetroMix® 306 planting mixture, which typically has a pH of 6.0 to 6.8 and an organic matter content of about 30 percent, in plastic pots with a surface area of 103.2 square centimeters (cm^2). […] The plants were grown for 7-36 days in a greenhouse with an approximate 14 hour photoperiod which was maintained at about 18° C. during the day and 17° C. during the night. Nutrients and water were added on a regular basis and supplemental lighting was provided with overhead metal halide 1000-Watt lamps as necessary. The plants were employed for testing when they reached the second or third true leaf stage.
(§3) Treatments consisted of the benzyl ester of the compound of formula (I) (Compound A as listed in Tables 1-8) and a second cereal herbicide alone and in combination. […] The concentrated stock solutions were diluted to 1.5 mg ai/mL with the addition of 2 volumes of an aqueous mixture containing acetone, water, isopropyl alcohol, DMSO, Agri-dex crop oil concentrate, and Triton® X-77 surfactant in a 64.7:26.0:6.7:2.0:0.7:0.01 v/v ratio. A dilution solution was prepared by mixing 1 volume of 97:3 v/v acetone/DMSO and 2 volumes of an aqueous mixture containing acetone, water, isopropyl alcohol, DMSO, Agri-dex crop oil concentrate, and Triton® X-77 surfactant in a 64.7:26.0:6.7:2.0:0.7:0.01 v/v ratio. Compound requirements are based upon a 12 mL application volume at a rate of 187 liters per hectare (L/ha). […] Formulated compounds were applied to the plant material with an overhead Mandel track sprayer equipped with 8002E nozzles calibrated to deliver 187 L/ha over an application area of 0.503 square meters (m^2) at a spray height of 18 inches (43 cm) above average plant canopy. Control plants were sprayed in the same manner with the solvent blank.
(§4) The treated plants and control plants were placed in a greenhouse as described above and watered by sub-irrigation to prevent wash-off of the test compounds. After 20-22 days, the condition of the test plants as compared with that of the control plants was determined visually and scored on a scale of 0 to 100 percent where 0 corresponds to no injury and 100 corresponds to complete kill.
(§5) Colby's equation was used to determine the herbicidal effects expected from the mixtures (Colby, S. R. 1967. Calculation of the synergistic and antagonistic response of herbicide combinations. Weeds 15:20-22.). Specifically, the following equation was used to calculate the expected activity of mixtures containing two active ingredients, A and B: Expected=A+B−(A×B/100) • A=observed efficacy of active ingredient A at the same concentration as used in the mixture. • B=observed efficacy of active ingredient B at the same concentration as used in the mixture.

[2] = system: Stellaria media (STEME); experiment: Postemergence herbicidal activity, greenhouse, STEME
Method: as §1, §2, §3, §4, §5

[3] = system: Matricaria chamomila (MATCH); experiment: Postemergence herbicidal activity, greenhouse, MATCH
Method: as §1, §2, §3, §4, §5

[4] = system: Cirsium arvense (CIRAR); experiment: Postemergence herbicidal activity, greenhouse, CIRAR
Method: as §1, §2, §3, §4, §5

[5] = system: Alopecurus myosuroides (ALOMY); experiment: Postemergence herbicidal activity, greenhouse, ALOMY
Method: as §1, §2, §3, §4, §5

[6] = system: Apera spica-venti (APESV); experiment: Postemergence herbicidal activity, greenhouse, APESV
Method: as §1, §2, §3, §4, §5

[7] = system: Lolium multiflorum subsp. gaudini (LOLMG); experiment: Postemergence herbicidal activity, greenhouse, LOLMG
Method: as §1, §2, §3, §4, §5

[8] = system: Triticum aestivum (TRZAW); experiment: Postemergence herbicidal activity, greenhouse, TRZAW
Method: as §1, §2, §3, §4, §5

[9] = system: Papaver rhoeas (PAPRH); experiment: Postemergence herbicidal activity, greenhouse, PAPRH
Method: as §1, §2, §3, §4, §5

[10] = system: Salsola tragus (SASKR); experiment: Postemergence herbicidal activity, greenhouse, SASKR
Method: as §1, §2, §3, §4, §5

[11] = system: Viola tricolor (VIOTR); experiment: Postemergence herbicidal activity, greenhouse, VIOTR
Method: as §1, §2, §3, §4, §5

[12] = system: Lamium purpureum (LAMPU); experiment: Postemergence herbicidal activity, greenhouse, LAMPU
Method: as §1, §2, §3, §4
(§6) Colby's equation was used to determine the herbicidal effects expected from the mixtures (Colby, S. R. 1967. Calculation of the synergistic and antagonistic response of herbicide combinations. Weeds 15:20-22.). […]

[13] = system: Setaria viridis (SETVI); experiment: Postemergence herbicidal activity, greenhouse, SETVI
Method: as §1, §2, §3, §4, §6

[14] = system: Kochia scoparia (KCHSC); experiment: Postemergence herbicidal activity, greenhouse, KCHSC
Method: as §1, §2, §3, §4, §5

[15] = system: Triticum aestivum (TRZAS); experiment: Postemergence herbicidal activity, greenhouse, TRZAS
Method: as §1, §2
(§7) Treatments consisted of the benzyl ester of the compound of formula (I) (Compound A as listed in Tables 1-8) and a second cereal herbicide alone and in combination. […]
as §4, with “kill. […]” for “kill.”

[16] = system: Hordeum vulgare (HORVS); experiment: Postemergence herbicidal activity, greenhouse, HORVS
Method: as §1, §2, §7
as §4, with “kill. […]” for “kill.”

[17] = system: Galium aparine (GALAP); experiment: Postemergence herbicidal activity, greenhouse, GALAP
Method: as §1, §2, §7
as §4, with “kill. […]” for “kill.”

[18] = system: Chenopodium album (CHEAL); experiment: Postemergence herbicidal activity, greenhouse, CHEAL
Method: as §1, §2, §7
as §4, with “kill. […]” for “kill.”

SMILES: COc1c(Cl)ccc(-c2nc(C(=O)OCc3ccccc3)c(Cl)c(N)c2F)c1F [Compound A, benzyl ester of 4-amino-3-chloro-5-fluoro-6-(4-chloro-2-fluoro-3-methoxyphenyl)pyridine-2-carboxylic acid]
- VERPE Obs ([1]; Compound A 5 g ai/ha): 13%
- VERPE Obs ([1]; Compound A 8.75 g/ha): 50%
- VERPE Obs ([1]; Compound A 10 g ai/ha): 25%
- STEME Obs ([2]; Compound A 5 g ai/ha): 50%
- STEME Obs ([2]; Compound A 8.75 g/ha): 68%
- STEME Obs ([2]; Compound A 10 g ai/ha): 63%
- MATCH Obs ([3]; Compound A 2.5 g ha): 0%
- MATCH Obs ([3]; Compound A 5 g ai/ha): 20%
- MATCH Obs ([3]; Compound A 5 g ha): 10%
- MATCH Obs ([3]; Compound A 8.75 g/ha): 20%
- MATCH Obs ([3]; Compound A 10 g ai/ha): 40%
- CIRAR Obs ([4]; Compound A 2.5 g ha): 10%
- CIRAR Obs ([4]; Compound A 5 g ha): 20%
- CIRAR Obs ([4]; Compound A 8.75 g/ha): 40%
- ALOMY Obs ([5]; Compound A 5 g ha): 0%
- ALOMY Obs ([5]; Compound A 5 g/ha): 0%
- ALOMY Obs ([5]; Compound A 10 g ha): 0%
- ALOMY Obs ([5]; Compound A 10 g/ha): 0%
- APESV Obs ([6]; Compound A 5 g ha): 0%
- APESV Obs ([6]; Compound A 5 g/ha): 0%
- APESV Obs ([6]; Compound A 10 g ha): 0%
- APESV Obs ([6]; Compound A 10 g/ha): 0%
- LOLMG Obs ([7]; Compound A 5 g ha): 0%
- LOLMG Obs ([7]; Compound A 5 g/ha): 0%
- LOLMG Obs ([7]; Compound A 10 g ha): 0%
- LOLMG Obs ([7]; Compound A 10 g/ha): 0%
- TRZAW Obs ([8]; Compound A 5 g ai/ha): 7%
- TRZAW Obs ([8]; Compound A 10 g ai/ha): 7%
- PAPRH Obs ([9]; Compound A 5 g ai/ha): 46%
- PAPRH Obs ([9]; Compound A 10 g ai/ha): 48%
- SASKR Obs ([10]; Compound A 2.5 g ha): 10%
- SASKR Obs ([10]; Compound A 5 g ai/ha): 75%
- SASKR Obs ([10]; Compound A 5 g ha): 60%
- SASKR Obs ([10]; Compound A 10 g ai/ha): 78%
- VIOTR Obs ([11]; Compound A 2.5 g ha): 10%
- VIOTR Obs ([11]; Compound A 5 g ai/ha): 27%
- VIOTR Obs ([11]; Compound A 5 g ha): 10%
- VIOTR Obs ([11]; Compound A 10 g ai/ha): 37%
- LAMPU Obs ([12]; Compound A 2.5 g ha): 80%
- LAMPU Obs ([12]; Compound A 5 g ha): 80%
- LAMPU Obs ([12]; Compound A 8.75 g/ha): 83%
- SETVI Obs ([13]; Compound A 5 g ha): 0%
- SETVI Obs ([13]; Compound A 10 g ha): 0%
- KCHSC Obs ([14]; Compound A 2.5 g ha): 20%
- KCHSC Obs ([14]; Compound A 5 g ai/ha): 60%
- KCHSC Obs ([14]; Compound A 5 g ha): 40%
- KCHSC Obs ([14]; Compound A 10 g ai/ha): 57%
- TRZAS Obs ([15]; Compound A 2.5 g ha): 0%
- TRZAS Obs ([15]; Compound A 5 g ha): 5%
- HORVS Obs ([16]; Compound A 2.5 g ha): 0%
- HORVS Obs ([16]; Compound A 5 g ha): 0%
- GALAP Obs ([17]; Compound A 2.5 g ha): 60%
- GALAP Obs ([17]; Compound A 5 g ha): 60%
- CHEAL Obs ([18]; Compound A 2.5 g ha): 50%
- CHEAL Obs ([18]; Compound A 5 g ha): 60%
